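Briefly, cells in 96-well plates were exposed to five compound concentrations for 48 h, and endpoints were estimated by linear interpolation. GI50: concentration for 50% inhibition of growth. Definition used: TGI = concentration required for complete inhibition of growth.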 Some results are limits rather than exact numbers.

Test in all cases: NCI anticancer screen, dose series, 48 h
In assay [1] the test system is OVCAR-4 ovarian.
Assay [2] relates to HS 578T breast.
The subject of assay [3] is K-562 leukemia.
Assay [4] has as its system SK-OV-3 ovarian.
Assay [5] concerns NCI-H460 lung.
Assay [6] concerns NCI-H522 lung.
For assay [7], the system named is HT29 colon.
Assay [8] has as its system MDA-N.
Assay [9] has as its system SW-620 colon.
Assay [10] relates to ACHN renal.
The test system of assay [11] is MCF7 breast.

Turning to `Clc1cc(-c2ccccc2)nc(Nc2nc3ccccc3[nH]2)n1`, the TGI in assay [1] was 33 µM; in [2], 80.2 µM; in [3], 85.3 µM; in assay [4], > 100 µM; in assay [5], 93.7 µM; in assay [6] it was 33.1 µM. The TGI in assay [7] was determined as 45.6 µM; in [8] it was 38.7 µM; in assay [9], 22.2 µM; in assay [10] it was 33.3 µM.

Take `O=C1c2cc(I)ccc2N2CCN=C2N1Cc1ccccc1`: the TGI in [11], in [1], in assay [2], in assay [3], in [4] and in assay [5] was > 100 µM throughout. In addition, the TGI in [6], in assay [7], in assay [9] and in [10] was > 100 µM each time.

On to `CN(C)Cc1c(O)ccc2c1c1c(n2C)C(=O)c2ccccc2C1=O`, for which the TGI in [11] is > 100 µM; in assay [1], 32.3 µM; in assay [2], > 100 µM; in assay [3] it was > 100 µM; in assay [4], > 100 µM; in assay [5] it was > 100 µM. The TGI in assay [6] is 20.8 µM; in assay [7], 5.19 µM; in [9], > 100 µM; in assay [10], > 100 µM.

With `COc1cccc2c1NC(=O)Cc1c-2[nH]c2ccccc12`, the TGI in assay [11], in assay [1], in assay [2], in assay [3], in [4] and in assay [5] was > 100 µM in each case. The TGI in [6], in [7], in assay [9] and in [10] was > 100 µM each time.

For the molecule `N#Cc1c(N)oc(-c2ccc([N+](=O)[O-])cc2)c1C#N`, the TGI was > 100 µM in [11]; 82.8 µM in assay [2]; > 100 µM in assay [4]; 60.3 µM in [6]; > 100 µM in assay [7]; > 100 µM in assay [8]. Besides, the TGI in assay [9] is > 100 µM; in [10], 72.4 µM.

For the molecule `CCOC(=O)/C=C/C(=O)O/C=C/[N+](=O)[O-]`, the TGI in assay [11], in [2], in assay [4], in [5], in [6] and in [7] was > 100 µM in each case. Besides, the TGI in assay [8], in [9] and in assay [10] was > 100 µM each time.

On to `CN1C(=O)CC2(C)c3cc(O)cc(Br)c3N(C)C12` (stereo not given), for which the TGI in [3], in assay [4], in [5], in assay [6], in assay [7] and in assay [9] was > 100 µM throughout. Also, the TGI in assay [10] is > 100 µM.

Take `CCc1cc(C)cc2[n+]1CC=C2`: the TGI in assay [1] is > 100 µM; in assay [5] it was 93.9 µM; in assay [6], 51.9 µM; in assay [7], 75.2 µM; in assay [9], > 100 µM; in [10], 35.4 µM.

As for `CC(=O)c1ccccc1NC(=O)C(=O)C(C(=O)c1ccc2ccccc2c1)C1OC(=O)c2ccccc21` (stereo not given), the TGI is 57 µM in assay [1]; 70.3 µM in assay [3]; > 100 µM in assay [4]; > 100 µM in [5]; 29.2 µM in assay [6]; 92.4 µM in [7]. Also, the TGI was 40.6 µM in [9] and > 100 µM in assay [10].

On to `CC[C@@]1(O)C[C@H](OC2CC(N(C)C)C(O)C(C)O2)c2c(cc3c(c2O)C(=O)c2c(O)ccc(O)c2C3=O)[C@H]1C(=O)OC` (stereo not given in full), for which the TGI in [11] worked out at 0.996 µM; in assay [1] it was 0.0918 µM; in [3], 0.472 µM; in assay [4] it was 2.37 µM; in assay [5], 0.12 µM; in assay [6] it was 0.501 µM. The TGI in assay [7] was 0.559 µM; in assay [9], 0.662 µM.

On to `O=C(CN1CCCC1=O)CS(=O)(=O)c1ccccc1`, for which the TGI in assay [11], in assay [2], in [3], in assay [5], in assay [6] and in assay [7] was > 100 µM each time. The TGI in [8], in assay [9] and in assay [10] was > 100 µM throughout.

Regarding `CCC(C)(C)c1cc(O)c(C(C)(C)CC)cc1O`, the GI50 in assay [11] is 2.46 µM; in assay [1], 3.26 µM; in assay [4], 4.41 µM; in [5], 2.25 µM; in assay [6], 1.98 µM; in assay [7] it was 2.13 µM. The GI50 is 2.35 µM in assay [9] and 4.62 µM in assay [10]. For the same molecule, the TGI in assay [11] amounted to 11.6 µM; in assay [1], 14.1 µM; in assay [4], 14.9 µM; in assay [5] it was 6.53 µM; in assay [6] it was 6.03 µM; in assay [7], 5.27 µM. In addition, the TGI was 6.89 µM in assay [9] and 16.1 µM in assay [10].

In the case of `Cc1ccccc1NC(=O)Cc1csc(N/N=C2\NC(=O)/C(=C/c3cccc([N+](=O)[O-])c3)S2)n1`, the TGI was > 100 µM in [11]; 44.2 µM in assay [1]; 74.6 µM in assay [4]; 29 µM in assay [5]; > 100 µM in [7]; > 100 µM in [8]. Moreover, the values for the TGI in assay [9] and in assay [10] were > 100 µM and 28.9 µM, respectively.

Take `Cn1c(-c2ccc[se]2)ccc1-c1ccc(C=O)[se]1`: the TGI in [1] is > 61.1 µM; in assay [2], > 89.9 µM; in assay [3], > 100 µM; in assay [4], 42.3 µM; in [5], 24.2 µM; in assay [6] it was 35.2 µM. Also, the TGI in assay [7] is > 100 µM; in [8] it was > 100 µM; in assay [9] it was > 51.6 µM; in [10] it was > 100 µM.

For the molecule `O=C(NC(=S)Nc1ccc([N+](=O)[O-])cc1)c1ccc2c(c1)Sc1ccccc1O2`, the TGI in [11] was > 100 µM; in assay [2] it was 79 µM; in assay [3], > 100 µM; in assay [4], > 100 µM; in assay [5], > 100 µM; in assay [6], > 100 µM. Besides, the TGI in [7], in assay [8], in assay [9] and in assay [10] was > 100 µM each time.

On to `Fc1ccc(-c2sc(-c3ccsc3)cc2Cc2ccsc2)cc1`, for which the TGI in [11], in [1], in assay [3], in assay [4], in [7] and in assay [8] was > 10 µM each time. Moreover, the TGI in assay [9] was > 10 µM.

In the case of `CC(=O)C1=C(C)O[C@@H]2O[C@H](COCc3ccccc3)[C@@H](OCc3ccccc3)[C@H](O)[C@@H]2S1`, the TGI was 73.7 µM in assay [1]; 39.9 µM in assay [2]; 50.3 µM in assay [3]; 87.6 µM in assay [4]; 38.9 µM in assay [5]; 30.9 µM in [6]. For the same molecule, the TGI in assay [7] amounted to 43.2 µM; in assay [8] it was 51.7 µM; in assay [9], 75.5 µM; in assay [10] it was 52.5 µM.

Consider `COc1cc(C2c3cc4c(cc3OC(NNC(N)=O)C2C)OCO4)cc(OC)c1OC` (stereo not given), for which the TGI is > 53.8 µM in assay [11]; > 100 µM in assay [1]; > 64.9 µM in assay [2]; 2.82 µM in assay [3]; > 100 µM in assay [4]; > 89.8 µM in assay [5]. In addition, the TGI in assay [6] was 0.344 µM; in [7], > 100 µM; in assay [9], > 100 µM; in [10], > 62.2 µM.

`CN(c1ccccc1)S(=O)(=O)c1ccc([N+](=O)[O-])cc1`: the TGI in assay [11], in assay [1], in assay [5], in assay [6], in assay [7] and in [8] was > 100 µM in each case. For the same molecule, the TGI in assay [9] and in [10] was > 100 µM each time.

As for `O=C1C=C(Nc2ccccc2C(=O)CC(=O)C(=O)Nc2ccc(Cl)cc2)c2ccccc2C1=O`, the TGI in assay [1] was 37 µM; in [3], 40.9 µM; in assay [4] it was 76.1 µM; in assay [5], 34.7 µM; in assay [6] it was 26.1 µM; in assay [7], > 100 µM. Also, the TGI in [9] stood at 27 µM; in assay [10], 55.1 µM.

On to `COC(=O)[C@H](CC(C)C)NC(=O)[C@H](Cc1ccccc1)N1CC2C=CC1C2` (stereo not given in full), for which the TGI in [1], in assay [3], in assay [4], in assay [5], in [6] and in assay [7] was > 100 µM in each case. For the same molecule, the TGI in [9] and in assay [10] was > 100 µM in each case.

Consider `CNC(=O)N(CCC#N)CCN(C(=O)NC)c1ccccc1`, for which the TGI in assay [11], in assay [1], in assay [3], in assay [4], in assay [5] and in [6] was > 100 µM each time. The TGI in assay [7], in assay [8], in [9] and in assay [10] was > 100 µM in each case.

Consider `Nc1nc(NCCOCP(=O)(O)O)c([N+](=O)[O-])c(=O)[nH]1`, for which the TGI in assay [3], in assay [4], in [5], in [6], in assay [7] and in assay [9] was > 100 µM each time. In assay [10], the TGI is > 100 µM.

On to `CCC12CCCN(Cc3ccccc3)C1c1c(n(C)c3ccccc13)C(CO)C2` (stereo not given), for which the TGI was 107 µM in assay [3]; 194 µM in [4]; 73.8 µM in assay [5]; 66.7 µM in [6]; 72.2 µM in assay [7]; 89.2 µM in assay [9].

Regarding `CC(C)(C)N/N=C(\C(=O)Nc1cccc(Cl)c1)C1C(=O)Nc2ccccc2S1=O` (stereo not given), the TGI in assay [1], in [4], in assay [5], in assay [6], in [7] and in assay [9] was > 100 µM each time. In assay [10], the TGI is > 100 µM.

For the molecule `O=c1cc(-c2ccccc2)[nH]c2ncccc12`, the TGI was > 100 µM in assay [11]; > 100 µM in assay [1]; > 100 µM in [3]; 1.89 µM in assay [4]; > 52.1 µM in [5]; 0.702 µM in assay [6]. Also, the TGI in assay [7] was 0.426 µM; in assay [9], > 100 µM; in [10], > 100 µM.

As to `O=c1[nH]c(=O)c2ncn(-c3ccc([N+](=O)[O-])cn3)c2[nH]1`, the TGI in assay [11], in assay [1], in [3], in [4], in [5] and in assay [7] was > 100 µM each time. Further, the TGI in [9] and in assay [10] was > 100 µM throughout.

Turning to `CN(C)CN1CSC(=S)N(CN(C)C)C1`, the TGI in assay [1], in [2], in assay [3], in [5], in [6] and in assay [7] was > 100 µM in each case. The TGI in [8], in assay [9] and in assay [10] was > 100 µM in each case.

For the molecule `COc1ccc2c(c1)Oc1cc(O)ccc1[C@H]2c1ccccc1C(=O)NC(C)c1ccccc1` (stereo not given in full), the TGI in [3] was > 100 µM; in assay [4], 39.3 µM; in [5] it was 26.8 µM; in assay [6], 28 µM; in assay [7], 41.5 µM; in assay [9], 35.6 µM. In assay [10], this molecule had a TGI of 29.8 µM.

Take `O=C(Cc1nc2ccc(C(=O)c3ccccc3)cc2[nH]c1=O)C(=O)Nc1nc2ccccc2[nH]1`: the TGI in assay [1], in assay [4], in assay [5], in [6], in assay [7] and in assay [9] was > 100 µM in each case. The TGI in assay [10] is > 100 µM.

The values above are taken from PubChem BioAssay (NCI).
